Reference: PubChem BioAssay (NCI)
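Five compound concentrations were applied to cells in 96-well plates for 48 hours; endpoints were derived by simple linear interpolation of the resulting dose-response curve. TGI: concentration producing complete growth inhibition.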

What was measured:
Experiment in all cases: inhibition of tumour cell growth, NCI panel, 48 h
HT29 colon = test system: HT29 colon
SK-OV-3 ovarian = test system: SK-OV-3 ovarian
PC-3 prostate = test system: PC-3 prostate
TK-10 renal = test system: TK-10 renal
A498 renal = test system: A498 renal
BT-549 breast = test system: BT-549 breast
COLO 205 colon = test system: COLO 205 colon
NCI-H226 lung = test system: NCI-H226 lung
MDA-MB-435 = test system: MDA-MB-435
SF-268 CNS = test system: SF-268 CNS
A549 NSCLC = test system: A549 NSCLC
OVCAR-5 ovarian = test system: OVCAR-5 ovarian
HS 578T breast = test system: HS 578T breast
NCI-H522 lung = test system: NCI-H522 lung
786-0 renal = test system: 786-0 renal
OVCAR-3 ovarian = test system: OVCAR-3 ovarian
CAKI-1 renal = test system: CAKI-1 renal
IGROV1 ovarian = test system: IGROV1 ovarian
MALME-3M melanoma = test system: MALME-3M melanoma
SR leukemia = test system: SR leukemia
OVCAR-8 ovarian = test system: OVCAR-8 ovarian
SK-MEL-2 melanoma = test system: SK-MEL-2 melanoma
SNB-19 CNS = test system: SNB-19 CNS
HCT-116 colon = test system: HCT-116 colon
UACC-62 melanoma = test system: UACC-62 melanoma
MOLT-4 leukemia = test system: MOLT-4 leukemia
CCRF-CEM leukemia = test system: CCRF-CEM leukemia
NCI-H23 lung = test system: NCI-H23 lung
K-562 leukemia = test system: K-562 leukemia
HCC-2998 colon = test system: HCC-2998 colon
EKVX NSCLC = test system: EKVX NSCLC
NCI-H460 lung = test system: NCI-H460 lung
NCI/ADR-RES ovarian = test system: NCI/ADR-RES ovarian
HOP-62 NSCLC = test system: HOP-62 NSCLC
KM12 colon = test system: KM12 colon
HOP-92 NSCLC = test system: HOP-92 NSCLC
ACHN renal = test system: ACHN renal
MCF7 breast = test system: MCF7 breast
DU-145 prostate = test system: DU-145 prostate
M14 melanoma = test system: M14 melanoma
HCT-15 colon = test system: HCT-15 colon
U251 CNS = test system: U251 CNS
SW-620 colon = test system: SW-620 colon
SN12C renal = test system: SN12C renal
UO-31 renal = test system: UO-31 renal
OVCAR-4 ovarian = test system: OVCAR-4 ovarian
SF-539 CNS = test system: SF-539 CNS
UACC-257 melanoma = test system: UACC-257 melanoma
SF-295 CNS = test system: SF-295 CNS
RPMI-8226 leukemia = test system: RPMI-8226 leukemia
LOX IMVI melanoma = test system: LOX IMVI melanoma
MDA-N = test system: MDA-N
MDA-MB-231 breast = test system: MDA-MB-231 breast
SK-MEL-28 melanoma = test system: SK-MEL-28 melanoma
T-47D breast = test system: T-47D breast
SK-MEL-5 melanoma = test system: SK-MEL-5 melanoma
RXF 393 renal = test system: RXF 393 renal
HL-60(TB) leukemia = test system: HL-60(TB) leukemia

Compound `CCC(=O)Oc1ccc2c(c1)c(=O)c1c(NCCCN(C)C)ccc3nnn2c31` has a TGI (HT29 colon) of 11.6 µM, a TGI (SK-OV-3 ovarian) of 18.9 µM and a TGI (PC-3 prostate) of 16.1 µM. For the same compound, the TGI (TK-10 renal) was 15.5 µM, the TGI (A498 renal) was 18.3 µM and the TGI (BT-549 breast) was 24.7 µM. The TGI (COLO 205 colon) was 13.7 µM, the TGI (NCI-H226 lung) was 11.8 µM and the TGI (MDA-MB-435) was 18.7 µM. It also gave a TGI (SF-268 CNS) of 17.2 µM, a TGI (A549 NSCLC) of 13.4 µM and a TGI (OVCAR-5 ovarian) of 22.6 µM. It also gave a TGI (HS 578T breast) of 21.6 µM, a TGI (NCI-H522 lung) of 9.06 µM and a TGI (786-0 renal) of 7.06 µM. It also gave a TGI (OVCAR-3 ovarian) of 21 µM, a TGI (CAKI-1 renal) of 14.3 µM and a TGI (IGROV1 ovarian) of 13.9 µM. The TGI (MALME-3M melanoma) was 17 µM, the TGI (SR leukemia) was 6.01 µM and the TGI (OVCAR-8 ovarian) was 15.1 µM. The TGI (SK-MEL-2 melanoma) was 26.4 µM, the TGI (SNB-19 CNS) was 17.3 µM and the TGI (HCT-116 colon) was 14.4 µM. For the same compound, the TGI (UACC-62 melanoma) was 23.5 µM, the TGI (MOLT-4 leukemia) was 5.69 µM and the TGI (CCRF-CEM leukemia) was 2.01 µM. It also gave a TGI (NCI-H23 lung) of 20.3 µM, a TGI (K-562 leukemia) greater than 100 µM and a TGI (HCC-2998 colon) of 15 µM. For the same compound, the TGI (EKVX NSCLC) was 16.6 µM, the TGI (NCI-H460 lung) was 9.23 µM and the TGI (NCI/ADR-RES ovarian) was 18.5 µM. The TGI (HOP-62 NSCLC) was 16.6 µM, the TGI (KM12 colon) was 18.3 µM and the TGI (HOP-92 NSCLC) was 21.3 µM. The TGI (ACHN renal) was 12.7 µM, the TGI (MCF7 breast) was 12.7 µM and the TGI (DU-145 prostate) was 16.7 µM. The TGI (M14 melanoma) was 20.1 µM, the TGI (HCT-15 colon) was 15.9 µM and the TGI (U251 CNS) was 17 µM. It also gave a TGI (SW-620 colon) of 13.5 µM, a TGI (SN12C renal) of 15.3 µM and a TGI (UO-31 renal) of 5.3 µM. It also gave a TGI (OVCAR-4 ovarian) of 3.31 µM, a TGI (SF-539 CNS) of 13.9 µM and a TGI (UACC-257 melanoma) of 23.4 µM. It also gave a TGI (SF-295 CNS) of 17.3 µM, a TGI (RPMI-8226 leukemia) of 7.16 µM and a TGI (LOX IMVI melanoma) of 2.88 µM. It also gave a TGI (MDA-N) of 18.4 µM, a TGI (MDA-MB-231 breast) of 19.1 µM and a TGI (SK-MEL-28 melanoma) of 23.9 µM. For the same compound, the TGI (T-47D breast) was 31 µM, the TGI (SK-MEL-5 melanoma) was 10.3 µM and the TGI (RXF 393 renal) was 15.5 µM.

Compound `C[N+]1(C)CCc2cc(O)c(O)cc2C1Cc1ccc(O)c(O)c1` (stereo not drawn) has a TGI (HL-60(TB) leukemia) of 54.8 µM, a TGI (HT29 colon) greater than 100 µM and a TGI (SK-OV-3 ovarian) greater than 100 µM. It also gave a TGI (PC-3 prostate) greater than 100 µM, a TGI (TK-10 renal) greater than 100 µM and a TGI (A498 renal) greater than 100 µM. It also gave a TGI (BT-549 breast) greater than 100 µM, a TGI (COLO 205 colon) greater than 100 µM and a TGI (NCI-H226 lung) greater than 100 µM. It also gave a TGI (MDA-MB-435) of 39.7 µM, a TGI (SF-268 CNS) greater than 100 µM and a TGI (A549 NSCLC) greater than 100 µM. It also gave a TGI (OVCAR-5 ovarian) greater than 100 µM, a TGI (HS 578T breast) greater than 100 µM and a TGI (NCI-H522 lung) of 58.4 µM. For the same compound, the TGI (786-0 renal) was greater than 100 µM, the TGI (OVCAR-3 ovarian) was greater than 100 µM and the TGI (CAKI-1 renal) was greater than 100 µM. The TGI (IGROV1 ovarian) was greater than 100 µM, the TGI (MALME-3M melanoma) was 91.4 µM and the TGI (SR leukemia) was 86.1 µM. The TGI (OVCAR-8 ovarian) was greater than 100 µM, the TGI (SK-MEL-2 melanoma) was greater than 100 µM and the TGI (SNB-19 CNS) was greater than 100 µM. It also gave a TGI (HCT-116 colon) of 47.8 µM, a TGI (UACC-62 melanoma) greater than 100 µM and a TGI (MOLT-4 leukemia) of 68.8 µM. For the same compound, the TGI (NCI-H23 lung) was greater than 100 µM, the TGI (K-562 leukemia) was greater than 100 µM and the TGI (EKVX NSCLC) was greater than 100 µM. It also gave a TGI (NCI-H460 lung) greater than 100 µM, a TGI (NCI/ADR-RES ovarian) greater than 100 µM and a TGI (HOP-62 NSCLC) greater than 100 µM. It also gave a TGI (KM12 colon) greater than 100 µM, a TGI (HOP-92 NSCLC) of 63.7 µM and a TGI (ACHN renal) greater than 100 µM. It also gave a TGI (MCF7 breast) of 43.3 µM, a TGI (DU-145 prostate) greater than 100 µM and a TGI (M14 melanoma) greater than 100 µM. It also gave a TGI (HCT-15 colon) greater than 100 µM, a TGI (U251 CNS) greater than 100 µM and a TGI (SW-620 colon) of 76.7 µM. It also gave a TGI (SN12C renal) greater than 100 µM, a TGI (UO-31 renal) greater than 100 µM and a TGI (OVCAR-4 ovarian) of 45.6 µM. For the same compound, the TGI (SF-539 CNS) was greater than 100 µM, the TGI (UACC-257 melanoma) was 86.9 µM and the TGI (SF-295 CNS) was greater than 100 µM. The TGI (RPMI-8226 leukemia) was 65.9 µM, the TGI (LOX IMVI melanoma) was 81 µM and the TGI (MDA-N) was 89.1 µM. For the same compound, the TGI (MDA-MB-231 breast) was greater than 100 µM, the TGI (SK-MEL-28 melanoma) was greater than 100 µM and the TGI (T-47D breast) was 54.7 µM. The TGI (SK-MEL-5 melanoma) was greater than 100 µM and the TGI (RXF 393 renal) was greater than 100 µM.
